In patent publication US20180353501A1 (Arvinas, Inc., priority 2017, published 2018):

Target: T1, VHL (GST-VBC) (Homo sapiens, UniProt P40337)
T1 construct: made in house; host or cells: E. coli BL21(DE3)
Test: SPR binary affinity, PROTAC on immobilized GST-VBC
Format: binding
Experimental: FIGS. 16A, 16B, and 16C. SPR curves assessing binary and ternary interactions. […] (C) SPR kinetic evaluation of p38δ:compound 46:VHL and p38δ:compound 50:VHL ternary complex interactions. Equimolar p38δ:PROTAC mixtures were injected onto immobilized GST-VBC and allowed to dissociate overtime. […] See Table 12 for a summary of the binary and ternary affinity and kinetic measurements.
Next, with the same setup, equimolar p38δ:PROTAC dilutions were successively injected onto immobilized VHL for 60 seconds, prior to monitoring complex dissociation for the remaining 300 seconds. […]
For the expression of GST-tagged VHL:Elongin B:Elongin C (herein referred to as GST-VHL), wild-type human VHL, Elongin B, and Elongin C were co-expressed in E. coli. […] Eluted protein was assessed for identity and purity via coomassie staining of sample run on an SDS-PAGE gel and pure elutions were pooled, concentrated, and diluted in ion-exchange buffer A (30 mM Tris pH 8.0, 5% glycerol, 1 mM DTT) until the salt concentration was 50 mM, before loading onto a Mono Q 5/50 GL column (GE Life Sciences). […] Fractions were then assessed for purity via coomassie, pooled, concentrated, and run on a Superdex-200 column (GE Life Sciences) using size-exclusion buffer (30 mM Tris pH 8.0, 100 mM NaCl, 10% glycerol, 1 mM DTT). […]

T1 sequence (P40337 whole entry): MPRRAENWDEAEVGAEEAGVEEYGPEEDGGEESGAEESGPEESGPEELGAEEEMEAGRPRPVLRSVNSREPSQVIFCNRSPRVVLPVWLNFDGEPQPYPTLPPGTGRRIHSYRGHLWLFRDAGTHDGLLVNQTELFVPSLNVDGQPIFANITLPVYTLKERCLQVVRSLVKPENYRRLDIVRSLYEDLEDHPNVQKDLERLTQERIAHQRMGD
T1 sequence (Q15370 whole entry partner): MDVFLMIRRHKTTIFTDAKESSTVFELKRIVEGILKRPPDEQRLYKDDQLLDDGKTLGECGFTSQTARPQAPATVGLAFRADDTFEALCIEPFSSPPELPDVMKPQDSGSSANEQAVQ
T1 sequence (Q15369 whole entry partner): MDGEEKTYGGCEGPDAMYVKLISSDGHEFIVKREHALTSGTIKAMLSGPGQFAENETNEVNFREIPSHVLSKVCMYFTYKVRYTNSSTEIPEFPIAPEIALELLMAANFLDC

| Structure (SMILES) | Kd |
| --- | --- |
| COc1cc2c(Oc3ccc(NC(=O)C4(C(=O)Nc5ccc(F)cc5)CC4)cc3F)ccnc2cc1OCCOCCOCCOc1cc(-c2scnc2C)ccc1CNC(=O)[C@@H]1C[C@@H](O)CN1C(=O)[C@H](C(C)C)N1Cc2ccccc2C1=O [compound 46] | 3.5 µM |
| COc1cc2c(Oc3ccc(NC(=O)C4(C(=O)Nc5ccc(F)cc5)CC4)cc3F)ccnc2cc1OCCCCOCCCCOCC(=O)N[C@H](C(=O)N1C[C@H](O)C[C@H]1C(=O)NCc1ccc(-c2scnc2C)cc1)C(C)(C)C [compound 50, N-(3-fluoro-4-((7-(4-(4-(2-(((S)-1-((2S,4R)-4-hydroxy-2-((4-(4-methylthiazol-5-yl)benzyl)carbamoyl)pyrrolidin-1-yl)-3,3-dimethyl-1-oxobutan-2-yl)amino)-2-oxoethoxy)butoxy)buto-xy)-6-methoxyquinolin-4-yl)oxy)phenyl)-N-(4-fluorophenyl)cyclopropane-1,1-dicarboxa-mide] | 5 µM |
